Results reported in patent publication US11091471B2, “Isoxazolyl ether derivatives as GABAA α5 PAM” (Hoffmann-La Roche Inc., priority 2016, dated 2021).

Tests used:
h-GABA-A α5β3γ2 [1] = target: T1, h-GABA-A α5β3γ2 (Homo sapiens (Human), UniProt P18507+P31644); assay: Two-electrode voltage clamp electrophysiology in Xenopus oocytes expressing GABAA receptors, modulation of GABA EC20 current; type: cell-based; settings: Table 1; GABA at EC20, test compound at approx. 30 fold its Ki, Xenopus oocytes
Experimental: Xenopus laevis oocytes at maturation stages V-VI were used for the expression of cloned mRNA encoding GABAA receptor subunits. Oocytes ready for RNA micro-injection were bought from Ecocyte, Castrop-Rauxel, Germany and stored in modified Barth's medium (composition in mM: NaCl 88, KCl 1, NaHCO3 2.4, HEPES 10, MgSO4 0.82, CaNO3 0.33, CaCl2 0.33, pH=7.5) at 20° C. until the experiment.
Oocytes were plated in 96-well plates to be used in an automated instrument (Robo-ocyte, MultiChannelSystems, Reutlingen, Germany) for microinjection and electrophysiological recordings. Approximately 50 nl of an aqueous solution containing the RNA transcripts for the subunits of the desired GABAA receptor was injected into each oocyte.
Electrophysiological experiments were performed on days 3 to 5 after the micro-injection of mRNA. During the experiment the oocytes were constantly superfused by a solution containing (in mM) NaCl 90, KCl 1, HEPES 5, MgCl2 1, CaCl2 1 (pH 7.4). Oocytes were impaled by two glass microelectrodes (resistance: 0.4 MΩ) which were filled with a solution containing KCl 1M+K-acetate 1.5 M and voltage-clamped to −80 mV. The recordings were performed at room temperature using the Roboocyte two-electrode voltage clamp system (Multichannelsystem). After an initial equilibration period of 1.5 min GABA was added for 1.5 min at a concentration evoking approximately 20% of a maximal current response (EC20). After another rest interval of 2.5 min GABA was again added evoking a response of similar amplitude and shape. […] Current traces were recorded at a digitization rate of 10 Hz during and shortly before and after the GABA application.
Each compound and concentration was tested on at least 3 oocytes.
For the analysis, the digitized current traces of the first and second GABA response were superimposed and, if necessary, rescaled to equal maximal amplitudes. The ratio between the two responses during the time interval of test compound application was calculated point by point. The extremum of the resulting “ratio trace” was taken as the efficacy (“Fold increase”) of the compound expressed as “% modulation of GABA EC20” (100*(Fold increase−1)).

h-GABA-A α5β3γ2 [2] = target: T1, h-GABA-A α5β3γ2; assay: [3H]flumazenil competition binding assay, membranes of HEK293 cells expressing human GABAA receptors; settings: Table 1, displacement of [3H]-Flumazenil 0.5 nM, mean of two determinations
Experimental: The affinity of compounds at GABAA receptor subtypes was measured by competition for [3H]flumazenil (85 Ci/mmol; Roche) binding to HEK293 cells expressing rat (stably transfected) or human (transiently transfected) receptors of composition α1β3γ2, α2β3γ2, α3β3γ2 and α5β3γ2.
Cell pellets were suspended in Krebs-tris buffer (4.8 mM KCl, 1.2 mM CaCl2, 1.2 mM MgCl2, 120 mM NaCl, 15 mM Tris; pH 7.5; binding assay buffer), homogenized by polytron for ca. 20 sec on ice and centrifuged for 60 min at 4° C. (50000 g; Sorvall, rotor: SM24=20000 rpm). The cell pellets were resuspended in Krebs-tris buffer and homogenized by polytron for ca. 15 sec on ice. Protein was measured (Bradford method, Bio-Rad) and aliquots of 1 mL were prepared and stored at 80° C.
Assays were incubated to equilibrium for 1 hour at 4° C. and harvested onto GF/C uni-filters (Packard) by filtration using a Packard harvester and washing with ice-cold wash buffer (50 mM Tris; pH 7.5). After drying, filter-retained radioactivity was detected by liquid scintillation counting. Ki values were calculated using Excel-Fit (Microsoft) and are the means of two determinations.

| SMILES | Fold increase h-GABA-A α5β3γ2 oocyte (h-GABA-A α5β3γ2 [1]) | Ki (h-GABA-A α5β3γ2 [2]) [nM] |
| --- | --- | --- |
| Cc1ccc(-c2nocc2COc2ccc(C(=O)NC3CCOCC3)cn2)cn1 [Example 44, 6-((3-(6-methyl-3-pyridyl)isoxazol-4-yl)methoxy)-N-tetrahydropyran-4-yl-pyridine-3-carboxamide] | 1.54 | 76.1 |
| Cc1ccc(-c2noc(C)c2COc2ccc(C(=O)N[C@H]3CCCC[C@H]3O)nn2)cn1 [Example 23, N-((1S,2R)-2-hydroxycyclohexyl)-6-((5-methyl-3-(6-methylpyridin-3-yl)isoxazol-4-yl)methoxy)pyridazine-3-carboxamide] | 1.89 | 20.4 |
| Cc1ccc(-c2noc(C)c2COc2ccc(C(=O)NC(C)C(F)(F)F)nn2)cn1 (racemic) [Example 34, (RS)-6-((5-methyl-3-(6-methylpyridin-3-yl)isoxazol-4-yl)methoxy)-N-(1,1,1-trifluoropropan-2-yl)pyridazine-3-carboxamide] | – | 13.2 |
| Cc1ccc(-c2noc(C)c2COc2ccc(C(=O)NC3(C)CCOC3)nn2)cn1 (racemic) [Example 75, (RS)-6-((5-methyl-3-(6-methylpyridin-3-yl)isoxazol-4-yl)methoxy)-N-(3-methyltetrahydrofuran-3-yl)pyridazine-3-carboxamide] | – | 17.4 |
| CO[C@@H]1CC[C@@H](NC(=O)c2ccc(OCc3c(-c4ccc(C)nc4)noc3C)nn2)C1 (racemic) [Example 166, trans-N-((1RS,3RS)-3-methoxycyclopentyl)-6-((5-methyl-3-(6-methylpyridin-3-yl)isoxazol-4-yl)methoxy)pyridazine-3-carboxamide] | 1.7 | 7.6 |
| O=C(N[C@H]1CCOC1)c1ccc(OCc2c(-c3ccc(Cl)nc3)noc2C2CC2)nn1 [Example 179, (S)-6-((3-(6-chloropyridin-3-yl)-5-cyclopropylisoxazol-4-yl)methoxy)-N-(tetrahydrofuran-3-yl)pyridazine-3-carboxamide] | 1.82 | 43 |
| Cc1ccc(-c2noc(C)c2COc2ccc(C(=O)NC3CCS(=O)(=O)C3)nn2)cn1 (racemic) [Example 36, (RS)—N-(1,1-dioxothiolan-3-yl)-6-((5-methyl-3-(6-methylpyridin-3-yl)-1,2-oxazol-4-yl)methoxy)pyridazine-3-carboxamide] | – | 5.8 |
| Cc1ccc(-c2noc(C)c2COc2ccc(C(=O)NC(C)(C)CCS(C)(=O)=O)nn2)cn1 [Example 80, 6-((5-methyl-3-(6-methylpyridin-3-yl)isoxazol-4-yl)methoxy)-N-(2-methyl-4-(methylsulfonyl)butan-2-yl)pyridazine-3-carboxamide] | – | 13.2 |
| Cc1ccc(-c2noc(C)c2COc2ccc(C(=O)N3C[C@@H]4C[C@H]3CO4)nn2)cn1 [Example 151, (1S,4S)-2-oxa-5-azabicyclo[2.2.1]heptan-5-yl(6-((5-methyl-3-(6-methylpyridin-3-yl)isoxazol-4-yl)methoxy)pyridazin-3-yl)methanone] | 1.68 | 45.8 |
| Cc1ncc(-c2noc(C)c2COc2ccc(C(=O)NC3CCOCC3)cn2)cc1F [Example 143, 6-((3-(5-fluoro-6-methyl-3-pyridyl)-5-methyl-isoxazol-4-yl)methoxy)-N-tetrahydropyran-4-yl-pyridine-3-carboxamide] | 1.2 | – |

The next lines start with the values.

| Fold increase h-GABA-A α5β3γ2 oocyte (h-GABA-A α5β3γ2 [1]) | Ki (h-GABA-A α5β3γ2 [2]) [nM] | SMILES |
| --- | --- | --- |
| – | 5.3 | Cc1ccc(-c2noc(C)c2COc2ccc(C(=O)N[C@@H]3CC[C@@H](O)C3)nn2)cn1 (racemic) [Example 152, N-((1RS,3RS)-3-hydroxycyclopentyl)-6-((5-methyl-3-(6-methylpyridin-3-yl)isoxazol-4-yl)methoxy)pyridazine-3-carboxamide] |
| – | 6.6 | Cc1ccc(-c2noc(C)c2COc2ccc(C(=O)NC3CCOC3)nn2)cn1 (racemic) [Example 45, (RS)-6-((5-methyl-3-(6-methylpyridin-3-yl)isoxazol-4-yl)methoxy)-N-(tetrahydrofuran-3-yl)pyridazine-3-carboxamide] |
| – | 14.8 | Cc1ccc(-c2noc(C)c2COc2ccc(C(=O)NC3CCCOCC3)nn2)cn1 (racemic) [Example 187, (RS)-6-((5-methyl-3-(6-methylpyridin-3-yl)isoxazol-4-yl)methoxy)-N-(oxepan-4-yl)pyridazine-3-carboxamide] |
| – | 16.1 | Cc1ccc(-c2noc(C)c2COc2ccc(C(=O)NC3CCOC(C)(C)C3)nn2)cn1 (racemic) [Example 58, (RS)—N-(2,2-dimethyltetrahydropyran-4-yl)-6-((5-methyl-3-(6-methylpyridin-3-yl)isoxazol-4-yl)methoxy)pyridazine-3-carboxamide] |
| 1.8 | – | Cc1ccc(-c2noc(C)c2COc2ccc(C(=O)N[C@H]3CCOC3)nn2)cn1 [Example 87, (S)-6-((5-methyl-3-(6-methylpyridin-3-yl)isoxazol-4-yl)methoxy)-N-(tetrahydrofuran-3-yl)pyridazine-3-carboxamide] |
